{
  "source": "patent US20250204564A1",
  "about": "“TASTE MODIFYING COMPOSITIONS AND USES THEREOF” (Firmenich Incorporated, priority 2022, published 2025)",
  "format_in_all_cases": "in vivo",
  "key": {"Bitterness of Ginseng": {"system": "Bitterness of Ginseng", "assay": "Blinded paired taste comparison, bitterness of ginseng", "conditions": "sample S1: TM1 10 ppm + ginseng 0.036 wt % in water vs C, 39 panelists", "method": "(§1) A test sample and a comparative sample were prepared. The comparative sample (C) contained ginseng in water at a concentration of 0.036 wt %. The test sample (S1) contained ginseng in water at a concentration of 0.036 wt % and TM1 at a concentration of 10 ppm. Sample pairs, a test sample and a comparative sample, were presented in a blinded fashion to panelists, they were asked to taste the samples and identify the sample with the highest bitterness."}, "Bitterness of Coffee": {"system": "Bitterness of Coffee", "assay": "Blinded paired taste comparison, bitterness of instant coffee", "conditions": "sample S1: TM1 10 ppm in instant coffee (Taster's Choice French Roast) vs C, 33 panelists", "method": "A test sample and a comparative sample were prepared. The comparative sample (C) instant coffee (Taster's Choice French Roast, acquired in the United States) made according to the directions. The test sample (S1) consisted of instant coffee (Taster's Choice French Roast, acquired in the United States) made according to the directions and TM1 at a concentration of 10 ppm. Sample pairs, a test sample and a comparative sample, were presented in a blinded fashion to panelists, they were asked to taste the samples and identify the sample with the highest bitterness."}, "Bitterness of Caffeine": {"system": "Bitterness of Caffeine", "assay": "Blinded paired taste comparison, bitterness of caffeine", "conditions": "sample S1: TM1 10 ppm + caffeine 0.08 wt % in water vs C, 39 panelists", "method": "as §1, with “caffeine” for “ginseng”, “0.08” for “0.036”"}, "[1]": {"system": "Bitterness of Grapefruit Juice", "assay": "Blinded paired taste comparison, bitterness of grapefruit juice", "conditions": "39 panelists", "method": "as §1, with “consisted” for “contained ginseng in water at a concentration”, “grapefruit juice.” for “0.036 wt %.”, “grapefruit juice” for “0.036 wt %”"}, "[2]": {"system": "Bitterness of Pea Protein", "assay": "Blinded paired taste comparison, bitterness of pea protein", "conditions": "sample S1: TM1 10 ppm + pea protein 4 wt % in water vs C, 30 panelists", "method": "as §1, with “pea protein” for “ginseng”, “4” for “0.036”"}, "Bitterness of Saccharin": {"system": "Bitterness of Saccharin", "assay": "Blinded paired taste comparison, bitterness of saccharin", "conditions": "sample S1: TM1 10 ppm + saccharin 1000 ppm in water vs C, 33 panelists", "method": "as §1, with “saccharin” for “ginseng”, “1000 ppm.” for “0.036 wt %.”, “1000 ppm” for “0.036 wt %”"}, "[3]": {"system": "Bitterness of Potato Protein", "assay": "Blinded paired taste comparison, bitterness of potato protein", "conditions": "sample S1: TM1 10 ppm + potato protein 4 wt % in water vs C, 39 panelists", "method": "as §1, with “potato protein” for “ginseng”, “4” for “0.036”"}, "[4]": {"system": "Bitterness of Guaifenesin", "assay": "Blinded paired taste comparison, bitterness of guaifenesin", "conditions": "39 panelists", "method": "as §1, with “guaifenesin” for “ginseng”, “24 mM.” for “0.036 wt %.”, “24 mM” for “0.036 wt %”, “50” for “10”"}, "Bitterness of Green Tea": {"system": "Bitterness of Green Tea", "assay": "Blinded paired taste comparison, bitterness of green tea extract", "conditions": "39 panelists; for C Chosen: panelists choosing comparative sample C as highest bitterness; for Test Sample Chosen: panelists choosing test sample as highest bitterness", "method": "(§2) A series of test samples and a comparative sample were prepared. The comparative sample (C) contained green tea extract in water at a concentration of 0.30 wt %. Two test samples were prepared. Each test sample contained green tea extract in water at a concentration of 0.30 wt %. In addition, one test sample (S1) also contained TM1 at 20 ppm, and another sample (S2) contained TM1 at 40 ppm. Sample pairs, a test sample and a comparative sample, were presented in a blinded fashion to panelists, they were asked to taste the samples and identify the sample with the highest bitterness."}, "[5]": {"system": "Bitterness of Acetaminophen", "assay": "Blinded paired taste comparison, bitterness of acetaminophen", "conditions": "for C Chosen: panelists choosing comparative sample C as highest bitterness; for Test Sample Chosen: panelists choosing test sample as highest bitterness", "method": "as §2, with “acetaminophen” for “green tea extract”, “90 mM. Four” for “0.30 wt %. Two”, “90 mM.” for “0.30 wt %.”, “100” for “20”, “ppm,” for “ppm, and”, “50 ppm, another sample (S3) contained TM1 at 25 ppm, and another sample (S4) contained TM1 at 10” for “40”"}, "[6]": {"conditions": "panelists choosing comparative sample C as highest bitterness"}, "[7]": {"conditions": "panelists choosing test sample as highest bitterness"}, "[8]": {"conditions": "sample S1: TM1 20 ppm + green tea extract 0.30 wt % in water vs C"}, "[9]": {"conditions": "sample S2: TM1 40 ppm + green tea extract 0.30 wt % in water vs C"}, "[10]": {"conditions": "sample S2: TM1 50 ppm + acetaminophen 90 mM in water vs C, 48 panelists"}, "[11]": {"conditions": "sample S3: TM1 25 ppm + acetaminophen 90 mM in water vs C, 45 panelists"}, "[12]": {"conditions": "sample S4: TM1 10 ppm + acetaminophen 90 mM in water vs C, 45 panelists"}},
  "data": [
    {"compound": "CC(=O)c1cc2c(cc1NC(=O)CN1CCN(C(C)=O)CC1)OCCO2", "note": "[TM1, N-(7-acetyl-2,3-dihydrobenzo[b][1,4]dioxin-6-yl)-2-(4-acetylpiperazin-1-yl)acetamide]", "values": [
      {"measurement": "C Chosen", "setting": "Bitterness of Ginseng; [6]", "result": 26},
      {"measurement": "Test Sample Chosen", "setting": "Bitterness of Ginseng; [7]", "result": 13},
      {"measurement": "C Chosen", "setting": "Bitterness of Coffee; [6]", "result": 27},
      {"measurement": "Test Sample Chosen", "setting": "Bitterness of Coffee; [7]", "result": 6},
      {"measurement": "C Chosen", "setting": "Bitterness of Caffeine; [6]", "result": 29},
      {"measurement": "Test Sample Chosen", "setting": "Bitterness of Caffeine; [7]", "result": 10},
      {"measurement": "C Chosen", "setting": "[1]; panelists choosing comparative sample C as highest bitterness, sample S1: TM1 10 ppm in grapefruit juice vs C", "result": 26},
      {"measurement": "Test Sample Chosen", "setting": "[1]; panelists choosing test sample as highest bitterness, sample S1: TM1 10 ppm in grapefruit juice vs C (grapefruit juice)", "result": 13},
      {"measurement": "C Chosen", "setting": "[2]; [6]", "result": 20},
      {"measurement": "Test Sample Chosen", "setting": "[2]; [7]", "result": 10},
      {"measurement": "C Chosen", "setting": "Bitterness of Saccharin; [6]", "result": 24},
      {"measurement": "Test Sample Chosen", "setting": "Bitterness of Saccharin; [7]", "result": 9},
      {"measurement": "C Chosen", "setting": "[3]; [6]", "result": 26},
      {"measurement": "Test Sample Chosen", "setting": "[3]; [7]", "result": 13},
      {"measurement": "C Chosen", "setting": "[4]; panelists choosing comparative sample C as highest bitterness, sample S1: TM1 50 ppm + guaifenesin 24 mM in water vs C", "result": 32},
      {"measurement": "Test Sample Chosen", "setting": "[4]; panelists choosing test sample as highest bitterness, sample S1: TM1 50 ppm + guaifenesin 24 mM in water vs C (guaifenesin 24 mM)", "result": 7},
      {"measurement": "C Chosen", "setting": "Bitterness of Green Tea; [8]", "result": 28},
      {"measurement": "C Chosen", "setting": "Bitterness of Green Tea; [9]", "result": 26},
      {"measurement": "Test Sample Chosen", "setting": "Bitterness of Green Tea; [8]", "result": 11},
      {"measurement": "Test Sample Chosen", "setting": "Bitterness of Green Tea; [9]", "result": 13},
      {"measurement": "C Chosen", "setting": "[5]; sample S1: TM1 100 ppm + acetaminophen 90 mM in water vs C, 31 panelists", "result": 27},
      {"measurement": "C Chosen", "setting": "[5]; [10]", "result": 39},
      {"measurement": "C Chosen", "setting": "[5]; [11]", "result": 33},
      {"measurement": "C Chosen", "setting": "[5]; [12]", "result": 31},
      {"measurement": "Test Sample Chosen", "setting": "[5]; sample S1: TM1 100 ppm + acetaminophen 90 mM in water vs C (acetaminophen 90 mM), 31 panelists", "result": 4},
      {"measurement": "Test Sample Chosen", "setting": "[5]; [10]", "result": 9},
      {"measurement": "Test Sample Chosen", "setting": "[5]; [11]", "result": 12},
      {"measurement": "Test Sample Chosen", "setting": "[5]; [12]", "result": 14}
    ]}
  ]
}
